Test results: patent US8440652B2, “MST1 kinase inhibitors and methods of their use” (Lexicon Pharmaceuticals, Inc., priority 2011, dated 2013)
Like-named read-outs stand apart in the source and are kept apart here.

Columns and labels:
[1] = tested on: mouse EAE model; assay: Mouse EAE disease model; assay type: in vivo; settings: mice, subcutaneous dosing, 3 mg/kg, 10 mg/kg BID 12 days from Day 9 after MOG immunization; FIG. 9A
Procedure: Here, an adaptation of the method of Bettelli, et al., J. Immunol. 161:3299 (1998) was implemented. Eight to 12 weeks old C57Bl/6-Albino/129SvEv littermates were immunized subcutaneously with a total of 300 μg MOGp35-55 peptide ([…]) emulsified in complete Freund's adjuvant (CFA) containing 250 μg heat-inactivated Mycobacterium tuberculosis H37 Ra (Difco Laboratories). The antigen was divided equally across two injection sites in the abdominal flanks. Immediately following the injection of the emulsified antigen (day 0), each mouse received one intravenous injection of 500 ng of Pertussis toxin (List Biological Laboratories). Animal weights were recorded prior to the start of the experiment and monitored throughout the experiment, 2-3 times per week. Disease severity was scored on a scale as follows: 0=asymptomatic, no detectable sign of disease; 1=slight weakness of the tail/floppy tail and/or slumped hindquarters; 2=definite total paralysis of the tail; 3=mild waddle/distorted gait and total paralysis of the tail and/or mild impaired righting reflex; 4=heavy waddle with impaired control-weakness of hind limbs and/or impaired righting reflex; 5=paralysis of one of the hind limbs possibly with mild forelimb weakness; 6=paralysis of both hind limbs and/or moderate to severe forelimb weakness; 7=quadriplegia/paralysis of all limbs—hind and fore; 8=moribund/dead. […]

[2] = molecular target: T1, MST1 (Homo sapiens, UniProt Q13043); assay: In vitro measurement of MST1 inhibition (Z′-Lyte kinase assay); assay type: biochemical
T1 sequence (Q13043 1-487): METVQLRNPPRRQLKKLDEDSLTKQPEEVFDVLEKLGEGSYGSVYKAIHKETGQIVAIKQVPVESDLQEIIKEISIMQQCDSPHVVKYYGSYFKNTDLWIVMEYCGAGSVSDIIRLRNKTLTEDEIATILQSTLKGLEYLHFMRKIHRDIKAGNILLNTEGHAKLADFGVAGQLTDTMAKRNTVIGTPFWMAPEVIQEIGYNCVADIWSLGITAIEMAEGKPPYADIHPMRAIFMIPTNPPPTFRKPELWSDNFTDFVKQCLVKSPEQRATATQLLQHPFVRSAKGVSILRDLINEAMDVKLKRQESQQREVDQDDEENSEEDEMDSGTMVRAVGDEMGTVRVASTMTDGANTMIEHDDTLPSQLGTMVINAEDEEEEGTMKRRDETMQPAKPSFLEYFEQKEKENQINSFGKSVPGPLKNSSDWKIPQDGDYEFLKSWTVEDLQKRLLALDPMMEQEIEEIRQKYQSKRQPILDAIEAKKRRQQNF

SMILES: CN(C1CC1)S(=O)(=O)c1ccc(-c2cnc(N)c(-c3ccc4c(c3)CCNC4=O)n2)cc1 [4-(5-amino-6-(1-oxo-1,2,3,4-tetrahydroisoquinolin-6-yl)pyrazin-2-yl)-N-cyclopropyl-N-methylbenzenesulfonamide]
- clinical score [1]: clear dose-dependency in clinical score
- IC50 ([2]; 1 μM ATP, read-out: IC50 (μM) 1 μM ATP): < 0.01 µM
- IC50 ([2]; 50 μM ATP, read-out: IC50 (μM) 50 μM ATP): < 0.01 µM
